Data taken from ChEMBL document CHEMBL1781953, “Synthesis and antimycobacterial activity of 5-formylaminopyrimidines; analogs of antibacterial purines” (Bioorg Med Chem Lett, 2009).
In brackets after ≈: the same amount, converted by molar mass.

Columns and labels:
Staphylococcus aureus = assay: Antibacterial activity against Staphylococcus aureus; format: functional
Escherichia coli = assay: Antibacterial activity against Escherichia coli; format: functional
Vero = assay: Cytotoxicity against african green monkey Vero cells after 72 hrs by MTT assay; format: cell-based; details: Chlorocebus sabaeus
[1] = Cytotoxicity against african green monkey Vero cells assessed as cell viability at 40 ug/mL after 72 hrs by MTT assay; format: cell-based; details: chlorocebus sabaeus, read-out: Activity
[2] = tested on: Mycobacterium tuberculosis; assay: Antimycobacterial activity against Mycobacterium tuberculosis H37Rv ATCC 27294 by microplate alamar blue assay; format: functional, organism-based

Q: For GENTAMICIN, which MIC (Staphylococcus aureus) is on record?
A: 0.1 µg/mL

Q: With `COc1ccc(CNc2nc(F)nc(-c3ccco3)c2NC=O)cc1` as the molecule, how does the MIC (Staphylococcus aureus) read?
A: > 64 µg/mL

Q: What about the MIC (Escherichia coli) of the same molecule?
A: > 64 µg/mL

Q: Which MIC (Staphylococcus aureus) does the source give for `COc1ccc(CNc2nc(Cl)nc(-c3ccco3)c2NC=O)cc1` here?
A: > 64 µg/mL

Q: What about the MIC (Escherichia coli) of the same molecule?
A: > 64 µg/mL

Q: Which MIC (Staphylococcus aureus) does the source give for `COc1ccc(CNc2nc([N+](=O)[O-])nc(-c3ccco3)c2NC=O)cc1` here?
A: > 64 µg/mL

Q: What about the MIC (Escherichia coli) of the same molecule?
A: > 64 µg/mL

Q: What about the EC50 (Vero) of the same molecule?
A: > 40 µg/mL

Q: And the viability at 72 h, 40 ug/mL [1]?
A: 62%

Q: For `COc1ccc(CNc2ncnc(-c3ccco3)c2NC=O)cc1`, which MIC (Staphylococcus aureus) is on record?
A: > 64 µg/mL

Q: What about the MIC (Escherichia coli) of the same molecule?
A: > 64 µg/mL

Q: For `COc1ccc(CNc2nc(C(F)(F)F)nc(-c3ccco3)c2NC=O)cc1`, which IC50 [2] is on record?
A: 0.26 µg/mL (≈ 0.663 µM)

Q: And the IC90 [2]?
A: 0.58 µg/mL (≈ 1.48 µM)
